# Data taken from the METLIN SMRT retention time set (Domingo-Almenara et al. 2019).
# Test: gradient 5% acetonitrile 3 min, to 50% in 2 min, to 85% in 15 min, held 3 min, 100 µL/min
# Details: column: Zorbax Extend-C18 2.1 x 50 mm; eluents: water / acetonitrile, 0.1% formic acid
# Method in brief: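 Pure standards were run in mixtures of ~100 molecules by HPLC coupled to a quadrupole time-of-flight mass spectrometer. The column was a Zorbax Extend-C18 (2.1 × 50 mm, 1.8 μm) at 100 μL/min, with water and acetonitrile each containing 0.1% formic acid, in positive and negative ionization mode. Dead and dwell volumes were 40 μL and 900 μL. Retention time was taken from computationally picked adduct peaks, each manually inspected, with data collected over 3 months.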
row,SMILES,RP-LC retention time
1,CCc1nnc([C@@H]2CC(F)(F)CN2C(=O)CCn2cccn2)o1,639 s
2,CCCN1C(=O)COc2ccc(-c3csc(NC(=O)c4ccc(C)cc4)n3)cc21,1080 s
3,CN1CCCN(C(=O)Nc2ccc3c(c2)OCCO3)c2ccccc21,649 s
4,CCOCCCNC(=O)C1CCN(c2ncnc3c2oc2ccccc23)CC1,633 s
5,COC(=O)c1cc2c(=O)n(Cc3ccccn3)ccc2nc1C,638 s
6,COc1ccc(N2C(=O)N[C@H]3C[C@@]2(C)Oc2c(OC)cccc23)c(OC)c1,712 s
7,CC(Oc1ccc(F)cc1)C(=O)Nc1ccc(-c2nc(-c3ccc(F)cc3)no2)cc1 (configuration not stated),1290 s
8,CCC(=O)NCc1nc2c(n1CC)CN(C(=O)c1ccc(C(F)(F)F)s1)CC2,579 s
9,COc1ccc(-c2cc(-c3nc4c5sc6nc(C)cc(C)c6c5ncn4n3)[nH]n2)cc1OC,919 s
10,CC(C)(C)OC(=O)Cn1nc2ccc(S(=O)(=O)N3CCSCC3)cn2c1=O,888 s
11,CN(CC1CCOC1)C(=O)Nc1cc(F)ccc1F (configuration not stated),704 s
12,O=S(=O)(c1c[nH]c2ncccc12)N1CCN(c2ccccc2)CC1,805 s
13,Cc1nc(CSc2cc(C)c3ccccc3n2)cs1,969 s
14,O=C(c1ccc2ccccc2n1)N1CCC(Oc2ccccc2)C1 (configuration not stated),937 s
15,COCC(C)(O)CNC(=O)COc1ccccc1OC (configuration not stated),608 s
16,COc1ccc(OC)c(NC(=O)c2cn3c(n2)CSCC3)c1,767 s
17,CCc1cc(-c2csc(S(=O)(=O)N3CCN(c4cccc(Cl)c4)CC3)c2)on1,1200 s
18,CCOc1ccc(-c2noc(CN3C(=O)COc4ccccc43)n2)cc1OC,968 s
19,O=C(NC1CCCC1)C1CCc2sc(C(=O)N3CCCCCC3)cc2C1 (configuration not stated),900 s
20,O=C(OCCN1CCOCC1)C1(c2ccccc2)CCCCC1,755 s
21,O=C(Nc1nccs1)C1CCN(C(=O)c2ccc([N+](=O)[O-])o2)CC1,658 s
22,Cc1sc2ccn(C)c(=O)c2c1C(=O)NCc1ccc(N2CCCCC2)cc1,580 s
23,Cn1c(=O)oc2cc(-c3noc(-c4cccc(Br)c4)n3)ccc21,1190 s

row,SMILES,RP-LC retention time
1,O=C(c1ccc(OCC2CCCN2C(=O)C2CCCC2)cc1)N1CCOCC1 (configuration not stated),750 s
2,Cn1c(=O)c(N2CCC(NC(=O)Nc3cccc(Cl)c3)CC2)nc2ccccc21,944 s
3,CCOC(=O)N1CCC(c2nnc(Cc3ccc(OC)cc3)s2)CC1,788 s
4,Cc1ccc(C(=O)N2CCCC2c2nc(-c3cccc(Cl)c3)no2)c(C)c1 (configuration not stated),1200 s
5,Cc1nccn1CC(=O)N1CCCC(OCc2nc(C3CC3)no2)C1 (configuration not stated),577 s
6,O=C(Nc1ccccc1Cl)N1CCC(N2CC(F)(F)C[C@H]2COCC2CC2)CC1,720 s
7,CCOC(=O)c1cc(C2CC2)nc2c1c(=O)n(Cc1ccc(Cl)cc1)c(=O)n2C,1260 s
8,CC(=O)NCCc1nc2ccccc2n1CCCOc1cccc2ccccc12,611 s
9,CCN(CC)C(=O)N1CC(n2cc(C(=O)N3CCCC3)nn2)C1,646 s
10,CC(C(=O)Nc1ccc(F)cc1)C1CCN(C(=O)Nc2ccc(F)cc2)CC1 (configuration not stated),834 s
11,CN1CCCn2cc(S(=O)(=O)Nc3ccc(F)cc3)cc2C1=O,670 s
12,COCCNS(=O)(=O)c1cc2c(cc1C)CCN2C(C)=O,657 s
13,N#Cc1ccc(C(=O)N2CC(n3cc(C(=O)NCC4CC4)nn3)C2)cc1,701 s
14,Cc1cc(C(=O)Nc2nnc(-c3cc4ccccc4o3)o2)c(C)o1,812 s
15,CCC(C)NC(=O)C1CCCN(c2nnc(C)c3c(C)n(-c4ccc(Cl)cc4)nc23)C1 (configuration not stated),746 s
16,Cc1cccc(NC(=O)N2CCCC(C)(C(=O)NCc3ccccc3C)C2)c1 (configuration not stated),959 s
17,CCn1c(=O)sc2cc(S(=O)(=O)N3CCC(C(=O)NC4CCCC4)CC3)ccc21,845 s
18,CC(=O)N1CCC2(CC1)OC(=O)C(C)=C2C(=O)NCCCN(Cc1ccccc1)C(C)C,580 s
19,O=C1CCC(C(=O)N2CCN(c3ccc(-n4cccn4)nn3)CC2)N1 (configuration not stated),548 s
20,CCOC(=O)c1noc2nc(C)nc(Nc3ccc(C)cc3)c12,936 s
21,Cc1ccc(CNC(=O)Cn2c(C)cc(-c3nnc(-c4ccc(F)cc4)o3)c2C)cc1,982 s
22,O=C(C1=CN(c2ccc(F)c(Cl)c2)c2ccccc2S1(=O)=O)N1CCOCC1,786 s
23,COC(=O)c1[nH]c(C)c(C(=O)C(C)N(CC2CCCCC2)C(=O)c2ccc(F)cc2)c1C (configuration not stated),1080 s

row,SMILES,RP-LC retention time
1,O=C(Nc1cnn(-c2ncc(N3CCCCC3)cn2)c1)c1ccncc1,662 s
2,CC1=C(C(=O)OCCC#N)C(c2ccccc2Cl)NC(=O)N1 (configuration not stated),668 s
3,COc1cc(NC(=O)COc2nc(C)nc3ccccc23)cc(OC)c1,735 s
4,CC1=NS(=O)(=O)N(C)C=C1C(=O)OCc1nc(-c2ccc(C)cc2)no1,977 s
5,CCNC(=O)c1ccc2c(c1)n(Cc1ccccc1)c(=O)c1ccnn12,774 s
6,O=C(Cc1cccnc1)N1CCC[C@H]1c1nc(-c2ccccc2)n[nH]1,578 s
7,Cc1ccc(NC(=O)C2CCN(S(=O)(=O)c3ccc4c(c3)CCCC(=O)N4)CC2)cc1,948 s
8,CNC(=O)C1CCCN(c2nc3ncn(CC(=O)Nc4cccc(F)c4)c(=O)c3s2)C1 (configuration not stated),645 s
9,CCOC(=O)c1cnc2nc(C)ccc2c1Nc1ccc(Cl)cc1,752 s
10,COc1ccccc1CNc1nccc(-n2ccc(C)n2)n1,805 s
11,Cc1nc(NC(=O)Cn2nc3c(cc2=O)CCCCC3)sc1C,786 s
12,CC(=O)Nc1ccc(C(=O)NC2CCN(c3cc(-c4ccc(Cl)cc4)[nH]n3)C2)cc1 (configuration not stated),675 s
13,Cc1ccc(-c2cn3cccc(C)c3n2)cc1NS(=O)(=O)c1ccc(Br)cc1,737 s
14,Cn1c(=O)oc2cc(-c3noc(-c4ccc(F)cc4)n3)ccc21,831 s
15,Cc1ccc(-c2cc3c(N4CCC(C(=O)NC(C)C)CC4)nccn3n2)c(C)c1,769 s
16,CCOC(=O)c1noc2nc(C)nc(NCCc3ccc(Cl)cc3)c12,1210 s
17,CC(C)n1cnc(S(=O)(=O)N2CCC(C(=O)N3CCN(c4ccccn4)CC3)CC2)c1,571 s
18,Cc1noc([C@@H]2CN(Cc3cccc(Cl)c3)C[C@H]2CO)n1,603 s
19,Cc1ccc(S(=O)(=O)NC2CCN(C(=O)c3ccnn3C)CC2)cc1,688 s
20,CC(=O)NCC(=O)N1CCCn2cc(-c3ccccc3)nc21,570 s
21,CC(C)CN1C(=O)c2cccn2CC1CNC(=O)CC1CCCC1 (configuration not stated),784 s
22,Cc1ccc(C(=O)Nc2ccc(-c3nnc4n3CCCC4)cc2)s1,680 s
23,Cc1ccc2c(C)nc(NC3=NCN(CC4CCCO4)CN3)nc2c1 (configuration not stated),660 s

row,SMILES,RP-LC retention time
1,CS(=O)(=O)Nc1ccc(-c2noc(CNC(=O)c3ccccc3)n2)cc1,704 s
2,CCOc1ccccc1-c1nc(-c2ccc3nnn(CC)c3c2)no1,1110 s
3,COc1ccc(CNC(=O)C2CC(=O)N(CCc3c[nH]c4ccc(Cl)cc34)C2)cc1 (configuration not stated),834 s
4,Cc1nnc2cc(N3CCN(C(=O)c4cccc(N(C)C)c4)CC3)cnn12,496 s
5,Cc1nn2c(CNS(=O)(=O)c3cc(C)c(C)cc3C)c(-c3ccccc3)nc2s1,941 s
6,CC(C)c1ccc(-c2csc(NC(=O)c3cccc(Cl)c3)n2)cc1,1300 s
7,CCOC(=O)c1sc(NC(=O)c2cc(OC)ccc2OC)cc1C,1000 s
8,CCOC(=O)N1CCC(NC(=O)C(=O)NCc2cccs2)CC1,692 s
9,O=C(c1cc(-c2ccncc2)n[nH]1)N1CCN(C(=O)C2(c3ccccc3)CC2)CC1,590 s
10,CN(C)c1ncncc1N1CCC(C(=O)NCc2ccco2)CC1,588 s
11,CC(C)CCn1nc2ccc(S(=O)(=O)N3CCOCC3)cn2c1=O,801 s
12,Cc1nnc2c(NC(=O)c3ccncc3)cccn12,575 s
13,O=C(Cc1cccs1)N1CC(c2noc(C3CCCN3CC3CC3)n2)C1 (configuration not stated),599 s
14,CCCOc1ccc(CN2C[C@@H](CO)[C@H](c3ccncc3)C2)cc1,575 s
15,CN(Cc1nc2ccccc2n1CCc1ccccc1)C(=O)c1ccco1,706 s
16,CN(C)[C@@H]1CN(C(=O)Cn2c(=O)oc3cc(Cl)ccc32)C[C@H]1CO,596 s
17,Cc1cc(C)n(CC(=O)N(C)C2CCc3nn(CC4CC4)c(=O)n3CC2)n1 (configuration not stated),630 s
18,CCn1cc(-c2nc(C(=O)N3CCN(c4ccccc4F)CC3)cs2)c2cccnc21,1040 s
19,CC(=O)NCc1csc(C2CCCN(C(=O)COc3ccccc3)C2)n1 (configuration not stated),670 s
20,Cc1cccc(N2CCN(C(=O)CCC3CCN(c4cc(NC5CC5)ncn4)CC3)CC2)c1,717 s
21,COc1cc(-c2oc3cc(O)cc(O)c3c(=O)c2O[C@@H]2O[C@H](CO)[C@@H](O)[C@H](O)[C@H]2O)cc(OC)c1O,619 s
22,Cc1nccn1CCNC(=O)c1cc(-c2ccccc2)on1,569 s
23,CCOC(=O)c1noc2ncnc(NCCCN3CCN(c4ccc(F)cc4)CC3)c12,599 s
